{
  "source": "paper PMC6792350",
  "about": "(Environmental Health Perspectives, 2019)",
  "key": {"[1]": {"assay": "Population semiphysiologically based 9-compartment TK model (NLME) of plasma and urine data in piglets", "conditions": "for bioavailability: po; for k el: plasma and urine, other: intravenous and oral (data sets combined), tvK30, elimination rate constant from plasma to urine", "description": "The NLME model was therefore developed by combining the plasma and urinary data sets from the five TK experiments carried out in piglets, except for the urinary BPA concentration obtained after oral administration of BPA.\nDifferent compartmental models and submodels were tested and compared using the likelihood ratio test (LRT). The primary parameters of the model, namely the volumes of distribution ( VBPA , VBPAG , VBPS , VBPSG ) and the first-order rate constants ( Kij ) and their associated precisions [standard error (SE)] were estimated by minimizing an objective function value (OFV) expressed as minus twice the log of the likelihood estimation ( −2LL ).\nThe between-subject variability (BSV) of the parameters was evaluated using the exponential model θparameter_i=θtv_parameter×exp(ηi) , where θparameter_i is the parameter estimated for the i^th individual, θtv_parameter is the typical population value of the parameter, and ηi is the deviation associated with the i^th individual from the corresponding value of the parameter at the population level. The distribution of ηi was assumed to be normal with a mean of 0 and a variance ω² . The BSV was reported as a coefficient of variation (CV) in the original scale CV(%)=100× exp (ω^2)−1 .\nThe residual variance was modeled using a combined additive and proportional error model Cobsij=Cpredij(1+ε1ij)+ε2ij where Cobsij and Cpredij are respectively the j^th observed and predicted concentrations for the i^th individual and ε1ij and ε2ij the multiplicative and additive residual errors.\nThe bootstrap tool (20 replicates) was used to evaluate the mean, median, SE, and coefficient of variation of the parameter estimates. The predictive ability of the model was checked graphically by plotting Visual Predictive Check plots to compare the observed data with the selected quantiles (here 20th, 50th and 80th percentiles) of data simulated using the model and obtained from 200–1,000 replicates from each animal based on the structure of the original data (i.e., dosing, timing and number of samples).\nFor the LRT test, the critical value of the χ^2 distribution considered for a given nominal risk and a given number of degrees of freedom was obtained using the Excel function CHISQ.INV.RT().\nFigure 1. Schematic representation of the compartmental model. […] The link between the two central compartments was modeled with a compartment (CP2) that should be viewed as the liver. […] The fraction of absorbed BPA that is not hepatically transformed reaches the CP3 via K23 . The exchanges between CP2 and CP3 are bilateral, K32 being the rate constant between CP3 and CP2 and K23 the rate constant between CP2 and CP3. […] It was assumed that no phase-two metabolite other than BPAG (BPSG) was formed.\n(12) Bioavailability=K12/K12+K110+K10×(1−K25/K25+K23) with K10 , K12 , K110 , K23; K25 as defined above."}, "[2]": {"set-up": "method as in EFSA CEF Panel 2015", "conditions": "ref EFSA CEF Panel 2015; cited from earlier work"}, "[3]": {"assay": "Cumulative urinary excretion after IV and oral dosing in piglets", "experimental": "Blood samples were collected in heparinized polypropylene tubes, immediately chilled in ice and centrifuged for 10 min at 3,000×g at 4°C, and the supernatant plasma was stored in polypropylene tubes at −20°C until assay. Total urine was filtered through a nylon mesh ( 250μm ) and collected in glass containers and chilled in ice. The volume of each urine sample and the sampling time were recorded. A urine sample was immediately chilled in ice and centrifuged for 10 min at 3,000×g at 4°C and stored at −20°C until assayed.\nAnalytes were quantified by Acquity UPLC-MS/MS (Waters Corporation).\nAll TK analyses were performed using the Phoenix® NLME (version 8.0; Pharsight Corporation). The plasma mass concentrations were converted into molar concentrations before analysis."}, "in vivo": {"assay": "in vivo", "description": "Table 1 summarizes the protocol of the experiments and the plasma and urine datasets further considered for TK analyses.\nFor administrations by gavage, BPA powder was dissolved in ethanol–corn oil (1:9, vol:vol) at 100mg/mL (Exp. 1).\n(§1) The plasma analytes concentration–time data from individual piglets were used to derive the maximum concentration (Cmax), and the time to maximum concentration (Tmax). The area under the plasma concentration–time curves from dosing time to the time of the last measurable concentration ( AUC0–tlast ) were calculated using the linear trapezoidal rule (Equation 1). (1) AUC0–tlast=∑0tlast(Ci−1+Ci/2)×(ti−ti−1) where Ci is the concentration obtained at the time i ( ti ).\n(§2) The area under the plasma concentration time curve from t=0 to infinity ( AUC0–inf ) was obtained using Equation 2. (2) AUC0–inf=AUC0–tlast+AUCtlast–inf where AUCtlast–inf is the area extrapolated from the last observation to infinity, calculated according to Equation 3: (3) AUCtlast–inf=Clast/λz where Clast is the last observed quantifiable plasma concentration, and λz is the slope of the terminal phase, as estimated by linear regression using the best fit option of Phoenix®."}, "[4]": {"assay": "Noncompartmental toxicokinetic analysis of plasma after IV dosing in piglets", "description": "Table 1 summarizes the protocol of the experiments and the plasma and urine datasets further considered for TK analyses. A first experiment (Exp. 1) was performed in 8 male piglets age 42 d ( 20.8±1.6kg BW) to investigate oral BPA TK. […] BPA data obtained after IV BPA administrations had already been used to evaluate human BPA clearance using an allometric approach ([Collet et al. 2015]).\nFor the IV administrations, BPA powder was dissolved in ethanol–propylene glycol (1:49, vol:vol) at 50mg/mL (Exp.1 and 2) and in ethanol–saline (1:2, vol:vol) at 23mg/mL (Exp. 5).\nDuring the first 24 h of sampling, the piglets were housed individually in stainless steel cages.\nas §1, §2"}, "[5]": {"conditions": "human; cited from earlier work"}, "[6]": {"conditions": "no reference given; cited from earlier work"}},
  "data": [
    {"smiles": "CC(C)(c1ccc(O)cc1)c1ccc(O)cc1", "note": "[BPA, bisphenol A]", "values": [
      {"measurement": "tvK10, rate constant of unabsorbed compound from the gastrointestinal tract, Mean", "setting": "[1]; bootstrap mean", "result": 0.223, "unit": "h⁻¹"},
      {"measurement": "tvK12, rate constant of absorption by enterocytes passing directly into the portal blood, Mean", "setting": "[1]; bootstrap mean", "result": 0.365, "unit": "h⁻¹"},
      {"measurement": "tvK23, distribution rate constant liver to plasma, Mean", "setting": "[1]; bootstrap mean", "result": 1.53, "unit": "h⁻¹"},
      {"measurement": "tvK32, distribution rate constant, Mean", "setting": "[1]; bootstrap mean", "result": 3.72, "unit": "h⁻¹"},
      {"measurement": "tvK34, distribution rate constant, Mean", "setting": "[1]; bootstrap mean", "result": 5.90, "unit": "h⁻¹"},
      {"measurement": "tvK43, distribution rate constant, Mean", "setting": "[1]; bootstrap mean", "result": 3.89, "unit": "h⁻¹"},
      {"measurement": "tvK110, rate constant of compound absorbed by enterocytes locally subjected to glucuronidation, Mean", "setting": "[1]; bootstrap mean", "result": 0.349, "unit": "h⁻¹"},
      {"measurement": "tvK10, rate constant of unabsorbed compound from the gastrointestinal tract, Median", "setting": "[1]; bootstrap median", "result": 0.219, "unit": "h⁻¹"},
      {"measurement": "tvK12, rate constant of absorption by enterocytes passing directly into the portal blood, Median", "setting": "[1]; bootstrap median", "result": 0.371, "unit": "h⁻¹"},
      {"measurement": "tvK23, distribution rate constant liver to plasma, Median", "setting": "[1]; bootstrap median", "result": 1.32, "unit": "h⁻¹"},
      {"measurement": "tvK32, distribution rate constant, Median", "setting": "[1]; bootstrap median", "result": 3.31, "unit": "h⁻¹"},
      {"measurement": "tvK34, distribution rate constant, Median", "setting": "[1]; bootstrap median", "result": 4.14, "unit": "h⁻¹"},
      {"measurement": "tvK43, distribution rate constant, Median", "setting": "[1]; bootstrap median", "result": 3.68, "unit": "h⁻¹"},
      {"measurement": "tvK110, rate constant of compound absorbed by enterocytes locally subjected to glucuronidation, Median", "setting": "[1]; bootstrap median", "result": 0.318, "unit": "h⁻¹"},
      {"measurement": "CL renal", "setting": "[1]; both, pig, in vivo", "result": 0.0333, "unit": "mL/min/kg"},
      {"measurement": "mean volume of the central compartment", "setting": "[1]; both, pig, in vivo", "result": 1.0, "unit": "L/kg"},
      {"measurement": "metabolic hepatic clearance as fraction of plasma clearance", "setting": "[1]; both, pig, in vivo", "result": "higher than 99%"},
      {"measurement": "renal clearance as fraction of plasma clearance estimated by noncompartmental analysis", "setting": "[1]; both, pig, in vivo", "result": 0.06, "unit": "%"},
      {"measurement": "tvV, volume of the central compartment, Mean", "setting": "[1]; both, pig, in vivo", "result": 1.03, "unit": "L/kg"},
      {"measurement": "tvV, volume of the central compartment, Median", "setting": "[1]; both, pig, in vivo", "result": 1.00, "unit": "L/kg"},
      {"measurement": "bioavailability", "setting": "[1]; both, pig, in vivo", "result": 0.5, "unit": "%"},
      {"measurement": "k el", "setting": "[1]; both, pig, Mean, bootstrap mean", "result": "7.22e-07", "unit": "s⁻¹"},
      {"measurement": "k el", "setting": "[1]; both, pig, Median, bootstrap median", "result": "5.56e-07", "unit": "s⁻¹"},
      {"measurement": "fraction of the absorbed dose glucuronidated in the gut", "setting": "[1]; oral, % of absorbed dose", "result": 44, "unit": "%"},
      {"measurement": "fraction of the absorbed dose reaching the liver / first-pass glucuronidated in the liver", "setting": "[1]; oral, % of absorbed dose", "result": 53, "unit": "%"},
      {"measurement": "fraction of the dose reaching the liver unchanged", "setting": "[1]; oral, % of administered dose", "result": 40.3, "unit": "%"},
      {"measurement": "fraction of the dose subjected to hepatic first-pass effect", "setting": "[1]; oral, % of administered dose", "result": 39.9, "unit": "%"},
      {"measurement": "hepatic first-pass effect: fraction of compound reaching the liver that is glucuronidated", "setting": "[1]; oral, % of the fraction reaching the liver", "result": 99, "unit": "%"},
      {"measurement": "Fraction of absorbed BPA undergoing a first-pass effect (gut and liver), Mean", "setting": "[1]; oral, bootstrap mean", "result": 0.988},
      {"measurement": "Fraction of administered compound glucuronidated by the gastro-intestinal tract, Mean", "setting": "[1]; oral, bootstrap mean", "result": 0.360},
      {"measurement": "Fraction of administered compound reaching the liver by the portal blood flow, Mean", "setting": "[1]; oral, bootstrap mean", "result": 0.405},
      {"measurement": "fraction absorbed by the gastro-intestinal tract, Mean", "setting": "[1]; oral, bootstrap mean", "result": 0.765},
      {"measurement": "Fraction of absorbed BPA undergoing a first-pass effect (gut and liver), Median", "setting": "[1]; oral, bootstrap median", "result": 0.989},
      {"measurement": "Fraction of administered compound glucuronidated by the gastro-intestinal tract, Median", "setting": "[1]; oral, bootstrap median", "result": 0.340},
      {"measurement": "Fraction of administered compound reaching the liver by the portal blood flow, Median", "setting": "[1]; oral, bootstrap median", "result": 0.403},
      {"measurement": "fraction absorbed by the gastro-intestinal tract, Median", "setting": "[1]; oral, bootstrap median", "result": 0.766},
      {"measurement": "CL renal", "setting": "[1]; pig, in vivo", "result": 0.0333, "unit": "mL/min/kg"},
      {"measurement": "renal clearance, Median", "setting": "[1]; pig, in vivo", "result": 0.0333, "unit": "mL/min/kg"},
      {"measurement": "bioavailability", "setting": "[1]; pig, in vivo", "result": 0.5, "unit": "%"},
      {"measurement": "tolerable daily intake (TDI), fixed temporarily", "setting": "[2]", "result": 4, "unit": "μg/kg BW per day"},
      {"measurement": "part of the dose eliminated in urine", "setting": "[3]; 3 h after dosing", "result": "About half"},
      {"measurement": "unconjugated compound in urine, fraction of IV dose", "setting": "[3]; IV BPA and BPS doses", "result": "0.044±0.028", "unit": "%"},
      {"measurement": "AUClast/dose", "setting": "in vivo; both, pig, in vivo, po", "result": "0.0024±0.0027", "unit": "μmol×h/L per μmol/kg BW"},
      {"measurement": "Cl_F (apparent clearance)", "setting": "in vivo; both, pig, in vivo, po", "result": "21170 ± 20830", "unit": "mL/min/kg"},
      {"measurement": "Tmax", "setting": "in vivo; both, pig, in vivo, po, Tmax", "result": "57 ± 33", "unit": "min"},
      {"measurement": "Tmax", "setting": "in vivo; both, pig, in vivo, po, time to maximal plasma concentration", "result": "~60", "unit": "min"},
      {"measurement": "mean fraction of total (parent plus glucuronide) in plasma that is unconjugated", "setting": "in vivo; oral dosing, piglets", "result": 0.16, "unit": "%"},
      {"measurement": "time after which plasma concentrations were below the LOQ", "setting": "[4]; after IV BPA and BPS administration", "result": "> 12", "unit": "h"},
      {"measurement": "AUC0-tlast/dose", "setting": "[4]; pig, in vivo, iv", "result": "0.34±0.14", "unit": "μmol×h/L per μmol/kg"},
      {"measurement": "clearance", "setting": "[4]; pig, in vivo, iv", "result": 56.8, "unit": "mL/min/kg"},
      {"measurement": "intestinal intrinsic clearance", "setting": "[5]", "result": 7.22, "unit": "mL/min/kg"},
      {"measurement": "liver intrinsic clearance", "setting": "[5]", "result": 61.2, "unit": "mL/min/kg"},
      {"measurement": "LogP", "setting": "[6]", "result": 3.3}
    ]}
  ]
}
